# Results taken from patent US6353019B1, “Macrocyclic lactones, compositions, and methods of use” (United States of America as represented by the Department …, priority 1997, dated 2002).
# What was measured:
# [1] = tested on: HL-60-TB; test: NCI 60 cell-line screen, HL-60-TB (Leukemia); format: cell-based, human; details: averaged, quadruplicate testing, 48 h, SRB
# Experimental: (§1) The NCI screen consists of a panel of 60 different human tumor cell lines against which compounds are tested over a defined range of concentrations to determine the relative degree of growth inhibition or cytotoxicity against each cell line. The design and operation of the screen is such that for each compound tested, both the absolute and relative sensitivities of individual cell lines comprising the screen are sufficiently reproducible that a characteristic profile or “fingerprint” of cellular response is generated. Compounds which are active in the NCI screen show pronounced differential tumor growth-inhibitory and/or cytotoxic effects to the diverse cell lines comprising the 60 cell-line panel. The degree of differential response between the most and least sensitive lines typically may be relatively small (e.g., 2- to 10-fold), or occasionally as great as 3-4 orders of magnitude. […]
# (§2) In the screening assay, each agent is tested over a broad concentration range against every cell line in the panel. […] Test compounds are evaluated at five 10-fold dilutions. […] Optical densities are measured on automated plate readers, followed by computerized data acquisition, processing, storage, and availability for display and analysis. […]
# [2] = tested on: UACC-257; test: NCI 60 cell-line screen, UACC-257 (Melanoma); format: cell-based, human; details: averaged, quadruplicate testing, 48 h, SRB
# Experimental: as §1, §2
# [3] = tested on: MDA-N; test: NCI 60 cell-line screen, MDA-N (Breast); format: cell-based, human; details: averaged, quadruplicate testing, 48 h, SRB
# Experimental: as §1, §2
# [4] = tested on: 786-0; test: NCI 60 cell-line screen, 786-0 (Kidney); format: cell-based, human; details: averaged, quadruplicate testing, 48 h, SRB
# Experimental: as §1, §2
# [5] = tested on: SNB-75; test: NCI 60 cell-line screen, SNB-75 (Brain); format: cell-based, human; details: averaged, quadruplicate testing, 48 h, SRB
# Experimental: as §1, §2
# [6] = tested on: LOX-IMVI; test: NCI 60 cell-line screen, LOX-IMVI (Melanoma); format: cell-based, human; details: averaged, quadruplicate testing, 48 h, SRB
# Experimental: as §1, §2
# [7] = tested on: MCF-7; test: NCI 60 cell-line screen, MCF-7 (Breast); format: cell-based, human; details: averaged, quadruplicate testing, 48 h, SRB
# Experimental: as §1, §2
# [8] = tested on: SK-MEL-5; test: NCI 60 cell-line screen, SK-MEL-5 (Melanoma); format: cell-based, human; details: averaged, quadruplicate testing, 48 h, SRB
# Experimental: as §1, §2
# [9] = tested on: OVCAR-5; test: NCI 60 cell-line screen, OVCAR-5 (Ovary); format: cell-based, human; details: averaged, quadruplicate testing, 48 h, SRB
# Experimental: as §1, §2
# [10] = tested on: SK-MEL-28; test: NCI 60 cell-line screen, SK-MEL-28 (Melanoma); format: cell-based, human; details: averaged, quadruplicate testing, 48 h, SRB
# Experimental: as §1, §2
# [11] = tested on: UACC-62; test: NCI 60 cell-line screen, UACC-62 (Melanoma); format: cell-based, human; details: averaged, quadruplicate testing, 48 h, SRB
# Experimental: as §1, §2
# [12] = tested on: SW-620; test: NCI 60 cell-line screen, SW-620 (Colon); format: cell-based, human; details: averaged, quadruplicate testing, 48 h, SRB
# Experimental: as §1, §2
# [13] = tested on: OVCAR-8; test: NCI 60 cell-line screen, OVCAR-8 (Ovary); format: cell-based, human; details: averaged, quadruplicate testing, 48 h, SRB
# Experimental: as §1, §2
# [14] = tested on: A549/ATCC; test: NCI 60 cell-line screen, A549/ATCC (Lung); format: cell-based, human; details: averaged, quadruplicate testing, 48 h, SRB
# Experimental: as §1, §2
# [15] = tested on: NCI-H460; test: NCI 60 cell-line screen, NCI-H460 (Lung); format: cell-based, human; details: averaged, quadruplicate testing, 48 h, SRB
# Experimental: as §1, §2
# [16] = tested on: NCI-H322M; test: NCI 60 cell-line screen, NCI-H322M (Lung); format: cell-based, human; details: averaged, quadruplicate testing, 48 h, SRB
# Experimental: as §1, §2
# [17] = tested on: BT-549; test: NCI 60 cell-line screen, BT-549 (Breast); format: cell-based, human; details: averaged, quadruplicate testing, 48 h, SRB
# Experimental: as §1, §2
# [18] = tested on: CCRF-CEM; test: NCI 60 cell-line screen, CCRF-CEM (Leukemia); format: cell-based, human; details: averaged, quadruplicate testing, 48 h, SRB
# Experimental: as §1, §2
# [19] = tested on: panel of 60 different human tumor cell lines; test: NCI 60 cell-line human tumor screen, whole panel; format: cell-based
# Experimental: as §1, §2
# Three additional numbers are printed at the base of each of the three respective mean-graphs. […] The MG-MID is the calculated mean panel GI50, TGI, or LC50. […]
# [20] = tested on: KM12; test: NCI 60 cell-line screen, KM12 (Colon); format: cell-based, human; details: averaged, quadruplicate testing, 48 h, SRB
# Experimental: as §1, §2
# [21] = tested on: HS-578T; test: NCI 60 cell-line screen, HS-578T (Breast); format: cell-based, human; details: averaged, quadruplicate testing, 48 h, SRB
# Experimental: as §1, §2
# [22] = tested on: HCT-116; test: NCI 60 cell-line screen, HCT-116 (Colon); format: cell-based, human; details: averaged, quadruplicate testing, 48 h, SRB
# Experimental: as §1, §2
# [23] = tested on: SNB-19; test: NCI 60 cell-line screen, SNB-19 (Brain); format: cell-based, human; details: averaged, quadruplicate testing, 48 h, SRB
# Experimental: as §1, §2
# [24] = tested on: SK-OV-3; test: NCI 60 cell-line screen, SK-OV-3 (Ovary); format: cell-based, human; details: averaged, quadruplicate testing, 48 h, SRB
# Experimental: as §1, §2
# [25] = tested on: HOP-62; test: NCI 60 cell-line screen, HOP-62 (Lung); format: cell-based, human; details: averaged, quadruplicate testing, 48 h, SRB
# Experimental: as §1, §2
# [26] = tested on: SK-MEL-2; test: NCI 60 cell-line screen, SK-MEL-2 (Melanoma); format: cell-based, human; details: averaged, quadruplicate testing, 48 h, SRB
# Experimental: as §1, §2
# [27] = tested on: K-562; test: NCI 60 cell-line screen, K-562 (Leukemia); format: cell-based, human; details: averaged, quadruplicate testing, 48 h, SRB
# Experimental: as §1, §2
# [28] = tested on: SR; test: NCI 60 cell-line screen, SR (Leukemia); format: cell-based, human; details: averaged, quadruplicate testing, 48 h, SRB
# Experimental: as §1, §2
# [29] = tested on: HT29; test: NCI 60 cell-line screen, HT29 (Colon); format: cell-based, human; details: averaged, quadruplicate testing, 48 h, SRB
# Experimental: as §1, §2
# [30] = tested on: SF-539; test: NCI 60 cell-line screen, SF-539 (Brain); format: cell-based, human; details: averaged, quadruplicate testing, 48 h, SRB
# Experimental: as §1, §2
# [31] = tested on: RXF-393; test: NCI 60 cell-line screen, RXF-393 (Kidney); format: cell-based, human; details: averaged, quadruplicate testing, 48 h, SRB
# Experimental: as §1, §2
substance,measurement,setting,value
salicylihalamide A,negative log10 GI50,[1],9.04
same,negative log10 GI50,[2],8.47
same,negative log10 GI50,[3],8.00
same,negative log10 GI50,[4],7.92
same,negative log10 GI50,[5],6.21
same,negative log10 GI50,[6],9.11
same,negative log10 GI50,[7],7.12
same,negative log10 GI50,[8],9.00
same,negative log10 GI50,[9],8.11
same,negative log10 GI50,[10],7.00
same,negative log10 GI50,[11],8.38
same,negative log10 GI50,[12],7.54
same,negative log10 GI50,[13],8.43
same,negative log10 GI50,[14],8.54
same,negative log10 GI50,[15],9.01
same,negative log10 GI50,[16],6.72
same,negative log10 GI50,[17],9.30
same,negative log10 GI50,[18],7.89
same,GI50,"[19]; mean over the NCI 60 cell-line panel, read-out: mean panel GI50 concentration",~0.015 µM
same,range of differential sensitivity among the 60 cell-lines,[19]; most vs least sensitive lines of the NCI panel,greater than or equal to 10^3
same,negative log10 GI50,[20],8.30
same,negative log10 GI50,[21],5.85
same,negative log10 GI50,[22],8.74
same,negative log10 GI50,[23],6.47
same,negative log10 GI50,[24],5.54
same,negative log10 GI50,[25],8.38
same,negative log10 GI50,[26],7.47
same,negative log10 GI50,[27],8.41
same,negative log10 GI50,[28],8.44
same,negative log10 GI50,[29],8.54
same,negative log10 GI50,[30],7.89
same,negative log10 GI50,[31],9.07
